Here are results for two molecules from patent US11787816B2, “Chlorin compound, and preparation and use thereof” (Southwest Jiaotong University, priority 2021, dated 2023).

The test system of data set [1] is murine mammary carcinoma 4T1 cells. Description: Antitumor activity as sonosensitizers (SDT) on tumor-bearing mice. The data set is classed as in vivo. The procedure:
The murine mammary carcinoma cells (4T1 line) were subjected to adherent culture. After growing to a confluence of 70%-80%, the cells in the culture flask were routinely digested, centrifuged and counted, and then resuspended with 0.85% normal saline to a density of 1×10^7 cells/mL. The cell suspension was injected into the left lateral middle axillary subcutaneous part of […] Bal b/c healthy mice (female, aged 6-8 weeks) at 0.1 mL/mouse. When the tumor diameter, which was observed every other day, reached 0.6-0.8 cm, the mice with well-growing tumors and no ulcers on the epidermis were selected for grouped treatment.
Mice with similar body weight and uniform tumor size are selected and randomly divided into 6 groups with 6 mice for each group. 48 h after inoculation, the mice were subjected to drug administration separately from the tail vein by group.
[…] 6 h after drug administration, each group of mice was anesthetized by intraperitoneal injection with 0.2 mL of 1% pentobarbital sodium. Then the mice were fixed to allow the tumor growth site exposed. The SDT group was treated using an ultrasonic therapeutic apparatus at an impulse waveform of 1.0 MHz and power of 3.0 W/cm^2 for 3 min. 7 days after SDT, the animals were sacrificed. The tumor was stripped and weighed, and the body weight was recorded.

Data set [2] has the same test system. Briefly: Photosensitizer-mediated PDT, in vitro proliferation (MTT), 4T1. To be noted: Mus musculus, light or radiation study, 660 nm, 8 J/cm^2, read-out: cell viability (%). The data set is classed as cell-based. The procedure:
(§1) Several kinds of tumor cells (human cervical cancer Hela cells, human hepatocellular carcinoma huh-7 cells and murine mammary carcinoma 4T1 cells) cultured in vitro from a variety of tissues were taken as cell models, so as to investigate the photodynamic effects mediated by different doses of CEFN, CEFO, Ce6 and HPPH on the three different tumor cells (n=3). The specific experimental procedures were carried out as follows.
(§2) Cells in the logarithmic growth phase were harvested and seeded in a 24-well plate. After growing to a confluence of 70-80%, the cells were randomly divided into a control group (free of drug and light irradiation), a drug group and a photodynamic group. The CEFN, CEFO, Ce6 and HPPH were added respectively in dark, and for each drug, four final concentrations 1, 2, 5, and 10 μg/mL were set with 3 replicates for each group. After the co-incubation, the groups were treated individually. Regarding the photodynamic group, the light irradiation was performed at a wavelength of 660 nm and three different light intensities, i.e., 2, 4 and 8 J/cm^2. After that, each group was digested, and were inoculated into a 96-well plate at 100 μL per well with 4 replicates for each treatment. 24 hours later, the 96-well plate was subjected to MTT assay as follows. Each well was added with 20 μL of MTT (3-4,5-dimethylthiazol-2,5-diphenyltetrazolium bromide) solution in the dark and incubated for 4 hours. The supernatant was discarded, and the residue was dissolved with 150 μL of dimethyl sulfoxide for 15 min. After that, the 96-well plate was measured by a microplate reader for the absorbance (OD value). The relative cell viability was calculated as follows: relative cell viability=OD value of experimental group/OD value of control group*100%.
(§3) In this experiment, photodynamic effect mediated by the compounds (except CEFO and CEFN) in different Examples of this disclosure on the murine mammary carcinoma 4T1 cells was investigated. The experimental procedures are carried out as follows. Cells in the logarithmic growth phase were harvested and seeded in a 24-well plate. After growing to a confluence of 70-80%, the cells were randomly divided into multiple photodynamic groups and multiple no-light control groups. The compounds (as shown in Table 8a) with a final concentration of 10 μg/mL were added to each group respectively in dark with 3 replicates for each group, so as to co-incubate the cells with the drug. Regarding the multiple photodynamic groups, the light irradiation was performed at a wavelength of 660 nm and the light intensity of 8 J/cm^2. After that, each group was digested, and were inoculated into a 96-well plate at 100 μL per well with 4 replicates for light treatment and no light treatment. 24 hours later, the 96-well plate was measured by MTT assay as follows. Each well was added with 20 μL of MTT (3-4,5-dimethylthiazol-2,5-diphenyltetrazolium bromide) solution in the dark and incubated for 4 hours. The supernatant was discarded, and the residue was dissolved with 150 μL of dimethyl sulfoxide for 15 min. After that, the 96-well plate was measured by a microplate reader for the absorbance (OD value). The relative cell viability of the murine mammary carcinoma 4T1 cells was calculated as follows according to the measured absorbance (OD value) in each group: relative cell viability=OD value of experimental group/OD value of control group*100%.

Experiment in data set [3]: as above
The data set is classed as cell-based, murine. The following applies: mouse, 4T1 cells, no light, read-out: cell viability (%). The procedure:
as §1, §2, §3

Data set [4] is described as follows: Photosensitizer-mediated PDT, in vitro proliferation (MTT), huh-7. The class given is cell-based, human. To be noted: human, huh-7 cells, no light, read-out: cell viability (%). As to the method: as §1, §2
The subject of data set [5] is human hepatocellular carcinoma huh-7 cells. Described as above. The data set is classed as cell-based. The following applies: Homo sapiens, light or radiation study, 660 nm, 8 J/cm^2, read-out: cell viability (%). As to the method:
as §1, §2

The nature of data set [6]: Photosensitizer-mediated PDT, in vitro proliferation (MTT), Hela. The data set is classed as cell-based, human. The following applies: human, Hela cells, Hela, no light, read-out: cell viability (%). The procedure:
as §1, §2

In data set [7] the test system is human cervical cancer Hela cells. Described as above. The class given is cell-based. The procedure: as §1, §2
For data set [8] the following is noted: background statement; cited from earlier work.
The mark [9] stands for this setting: 5 mg/kg tail vein, SDT 1.0 MHz, 3.0 W/cm^2, 3 min, 6 h after dosing, 7 days after SDT.
The mark [10] stands for this setting: 5 mg/kg, SDT, mice, in g (unit assumed).

As a reminder, the viability is a per cent measure of how many cells are alive, often set against a control. For `C=Cc1c(C)c2cc3nc(c(CC(=O)O)c4[nH]c(cc5nc(cc1[nH]2)C(C)=C5CC)c(C)c4C(=O)O)[C@@H](CCC(=O)O)[C@@H]3C` [Ce6, reference compound], the “Inhibitory rate (average ± SD, %)” value in data set [1] (setting [9]) stood at 53.3 ± 2.8%. Moreover, in data set [1] (setting [9]), the “Tumor weight (average ± SD, g)” value is listed as 0.080 ± 0.005 g. In data set [1] (setting [10]), the “Body weight At the beginning” value was 20.5 ± 0.4. In addition, the “Body weight At the end” value in data set [1] (setting [10]) is on record as 21.4 ± 0.5. Also, the viability at 1 µg/mL in data set [2] (1 μg/mL) was found to be 88 ± 2%; in data set [5] (1 μg/mL), 42 ± 3%; in data set [7] (Homo sapiens, light or radiation study, Hela, 1 μg/mL, 660 nm, 8 J/cm^2, read-out: cell viability (%)), 86 ± 3%. Also, the viability at 2 µg/mL is 79 ± 3% in data set [2] (2 μg/mL); 37 ± 3% in data set [5] (2 μg/mL); 76 ± 3% in data set [7] (Homo sapiens, light or radiation study, Hela, 2 μg/mL, 660 nm, 8 J/cm^2, read-out: cell viability (%)). Besides, the viability at 5 µg/mL in data set [2] (5 μg/mL) turned out to be 54 ± 3%; in data set [5] (5 μg/mL) it was 37 ± 2%; in data set [7] (Homo sapiens, light or radiation study, Hela, 5 μg/mL, 660 nm, 8 J/cm^2, read-out: cell viability (%)), 38 ± 2%. Further, the viability at 10 µg/mL in data set [2] (10 μg/mL) stood at 36 ± 1%; in data set [5] (10 μg/mL), 32 ± 3%; in data set [7] (Homo sapiens, light or radiation study, Hela, 10 μg/mL, 660 nm, 8 J/cm^2, read-out: cell viability (%)) it was 21 ± 1%. The values for the viability at 24 h, 1 μg/mL in data set [3] (1 μg/mL), in data set [4] (1 μg/mL) and in data set [6] (1 μg/mL) were 91 ± 2%, 96 ± 1% and 92 ± 3%, respectively. In addition, the results for the viability at 24 h, 2 μg/mL in data set [3] (2 μg/mL), in data set [4] (2 μg/mL) and in data set [6] (2 μg/mL) were 90 ± 3%, 94 ± 2% and 89 ± 2%, respectively. Also, the viability at 24 h, 5 μg/mL is 86 ± 4% in data set [3] (5 μg/mL), 90 ± 2% in data set [4] (5 μg/mL) and 86 ± 4% in data set [6] (5 μg/mL). Moreover, the viability at 24 h, 10 μg/mL was 85 ± 4% in data set [3] (10 μg/mL), 87 ± 2% in data set [4] (10 μg/mL) and 83 ± 3% in data set [6] (10 μg/mL). Besides, the “toxicity to the cells when the drug is used alone without photodynamic treatment” value in data set [7] (summary statement for Hela, huh-7 and 4T1 cells, no light) is given as “toxic to the cells”.
Regarding “2-(1-n-hexyloxy)ethyl chlorin f sodium salt”, the water solubility result in data set [8] is “water-soluble”.
